Experiment: Human HepG2 cell viability assay in 384 well format
Type: toxicity, cell-based
Set-up: dose 125 nL, time 70.5 hour; concentration not given beside the values
Conditions: HepG2 cells, read-out: Inhibition

Row | SMILES | cytotoxicity at 70.5 h
1 | Cc1n[nH]cc1CNCC1(c2ccc3c(c2)OCO3)CCOCC1 | -5.66%
2 | CCn1ncc(C(=O)N2CCCN(CCCc3ccccc3)CC2)c1C | -2.97%
3 | Cc1cccc(-n2ncc3c2CCCC3NCC(C)(C)CO)c1C (stereo not drawn) | -10.7%
4 | CC1(C(=O)N2CCN(C3CCCC3)CC2)CNCCO1 (stereo not drawn) | -7.45%
5 | CCCc1nnc(N2CCN(C3CCCC3)CC2)o1 | -14.3%
6 | CCN1CCC2(CN(C(C)=O)CC23CCN(C(=O)N(C)C)CC3)C1=O (stereo not drawn) | -9.48%
7 | CN(C(=O)c1cccc(C#N)c1)c1nnc(C2CCOC2)s1 (stereo not drawn) | -7.42%
8 | O=c1c2cccc(F)c2ncn1CCN1CCOCC1 | -3.65%
9 | NC1C=C(C(F)(F)F)NC=C1c1ccc(Cl)cc1 (stereo not drawn) | 3.46%
10 | CC(C)CNC(=O)c1cn(C(C)C)cc2c(=O)[nH]nc1-2 | -7.94%
11 | Cc1ccoc1C(=O)N1CCn2nnc(COc3cccnc3)c2C1 | -11.5%
12 | CN(CC(C)(C)C)c1ccc(C(=O)NCCCc2ccccn2)cn1 | -8.74%
13 | Cc1nc(C2CCCN2CC(=O)Nc2c(C)nn(C)c2C)no1 (stereo not drawn) | -3.49%
14 | NC(=O)C1CCN(C(=O)CSC2CCCc3ccccc32)CC1 (stereo not drawn) | 1.96%
15 | CC(C)=CCN1CCN(Cc2nccn2C)[C@H]2CS(=O)(=O)C[C@H]21 | -7.09%
16 | CC1CN(C(=O)c2ccn(C)c(=O)c2)c2ccccc2NC1=O (stereo not drawn) | -2.71%
17 | CN(Cc1cccc(C#N)c1)Cn1nc(C(C)(C)C)ccc1=O | -0.146%
18 | O=C(C1CCCC1)N1CCC2(CC1)OCCO2 | -1.7%
19 | CCc1nccn1C1CCCN(C(=O)c2ccc3[nH]nnc3c2)C1 (stereo not drawn) | -8.95%
20 | CSCC(C)(O)CNC(=O)c1ccc(Br)cc1F (stereo not drawn) | -5.28%

Row | SMILES | cytotoxicity at 70.5 h
21 | c1ccc(C2CN(CCc3ccncc3)CCO2)cc1 (stereo not drawn) | -9.13%
22 | COCCN1C(=O)CCC12CCCN(C(=O)NC(C)C)CC2 (stereo not drawn) | 7.1%
23 | NC(=O)c1ccc(C(=O)N2CCCCC2Cn2cccn2)s1 (stereo not drawn) | 19.1%
24 | CCCn1nc(C)c(-c2cncn2CCN(C)C2CCCC2)c1C | -4.61%
25 | CCn1cc(-c2nn3c(C(F)(F)F)nnc3s2)c(C)n1 | -3.8%
26 | Cc1cc(C)c2c(N3CCN(C(=O)N4CCOCC4)CC3)ncnc2n1 | 30.5%
27 | CCc1noc(CN2CCCC2c2noc(C3CC3)n2)n1 (stereo not drawn) | 1.8%
28 | C[S+]([O-])c1nncn1CC(=O)c1ccc(OC(F)F)cc1 (stereo not drawn) | -2.01%
29 | CN1C[C@@H](NC(=O)C(C)(C)C)C[C@H]1C(=O)NCc1ncc[nH]1 | -8.54%
30 | CCOC(C)c1nc(CN2CCC(C3OCCO3)CC2)cs1 (stereo not drawn) | 9.96%
31 | O=C1C(NCc2nnc3n2CCCC3)CCN1CC(F)(F)F (stereo not drawn) | 20.6%
32 | Cc1noc([C@@H]2C[C@H](NC(=O)Nc3cccc(F)c3)CN2C)n1 | 6.23%
33 | CSC(C)C(=O)N1CCCN(Cc2cnn(C(C)C)c2)CC1 (stereo not drawn) | -12%
34 | COc1cc(N2C[C@@H]3COC[C@@H](Cc4nnc(C)o4)[C@@H]3C2)ncn1 | -0.141%
35 | CN(C)Cc1ccc(N2CCN(CCOCC(F)(F)F)CC2)nc1 | 17.7%
36 | CCN(CC1CC1)C(=O)NCc1nnc2n1CCC2 | 1.57%
37 | CC(C)(CO)CNC(=O)c1cc(-c2cc[nH]n2)n2ccccc12 | -97.3%
38 | Cc1nc(CSCCC(=O)NCCNC(=O)OC(C)(C)C)cs1 | 3.27%
39 | c1ccc(OCCSC2=NCCN2)cc1 | -2.35%
40 | CCn1cc(NC(=O)NCC(c2ccsc2)N(C)C)cn1 (stereo not drawn) | -6.99%

Row | SMILES | cytotoxicity at 70.5 h
41 | Cc1nc(C)n(CC2CCCN(c3ccc(C#N)cn3)C2)n1 (stereo not drawn) | -3.58%
42 | CS(=O)(=O)c1cccc(C(=O)NCC2(c3ccccc3)CC2)c1 | -11.2%
43 | Brc1cnc(NCCCOCC2CCOCC2)nc1 | -5.42%
44 | Cc1cc(O)c(OCC(=O)/N=c2\[nH]c(C)cs2)cn1 | -2.18%
45 | O=C1C(NCc2nnc3n2CCCC3)CCN1c1ccccc1F (stereo not drawn) | -20.6%
46 | COc1ccc(C(=O)O)c(OCC(=O)NC(C)c2ccccc2)c1 (stereo not drawn) | -5.77%
47 | O=C(c1ccc(-n2cnnc2)cc1Cl)N1CCCC2(CCNC2)C1 (stereo not drawn) | 2.05%
48 | CCCn1cc(CN2CCCC2c2cccc(-n3ccnc3)n2)cn1 (stereo not drawn) | -7.28%
49 | c1ccc(-c2nc(CNC3CCc4ncnn4C3)co2)cc1 (stereo not drawn) | 1.4%
50 | O=C(Nc1nc(-c2ccccc2)ns1)N1CC[C@H](O)C1 | -9.25%
51 | Cc1ccccc1C1CCCN1C(=O)CN1CC2(CCNCC2)OC1=O (stereo not drawn) | -4.74%
52 | O=C(c1cnc(-c2cnccn2)s1)N1CCCC1Cn1cccn1 (stereo not drawn) | -3.28%
53 | Cc1ccccc1C1(C(=O)NCCN2CCCC(C)C2)CCOCC1 (stereo not drawn) | 32.7%
54 | CC(C)c1nc(CN2CCCCC2)cs1 | -4.92%
55 | CN(C)[C@@H]1CCN(CC2CC2)[C@H]1Cc1cnn(C)c1 | 0.964%
56 | CC(C)N(C(=O)c1csc(-c2ccoc2)n1)C1CCOCC1 | -10.2%
57 | CC(Cn1cccn1)NC(=O)NCCc1cnn(C)c1 (stereo not drawn) | -16.3%
58 | O=C1CO[C@H]2CCN(C(=O)c3ccc4c(c3)CCCC4)CC[C@@H]2N1 | -8.53%
